Experimental data reported in ChEMBL document CHEMBL1126437, “Synthesis and cytotoxicity of enantiomeric pairs of duocarmycin a and its 2-epimer” (Bioorg Med Chem Lett, 1992).
In brackets after ≈: the same amount, converted by molar mass.

Tested on: P388
Test: In vitro evaluation for cytotoxicity against P388 murine leukemia.
Assay type: functional, cell-based, Mus musculus

Row | SMILES | IC50 (Mus musculus, P388, read-out: IC50) [ng/mL] | IC50 (p388) [ng/mL]
1 | COC(=O)[C@@]1(C)N=C2C(=O)C=C3N(C(=O)c4cc5cc(OC)c(OC)c(OC)c5[nH]4)C[C@@H]4C[C@]34C2=C1O | 0.3 (≈ 0.591 nM) | 
2 | COC(=O)[C@]1(C)N=C2C(=O)C=C3N(C(=O)c4cc5cc(OC)c(OC)c(OC)c5[nH]4)C[C@H]4C[C@@]34C2=C1O |  | 0.002 (≈ 0.00394 nM)
